Target: T1, human chemokine receptor 2 isoform B (CCR2B) (Homo sapiens, UniProt P41597)
T1 construct: host or cells: CHO-K1 (CHOK1-CCR2B-A5)
T1 sequence (P41597 1-360 isoform P41597-2): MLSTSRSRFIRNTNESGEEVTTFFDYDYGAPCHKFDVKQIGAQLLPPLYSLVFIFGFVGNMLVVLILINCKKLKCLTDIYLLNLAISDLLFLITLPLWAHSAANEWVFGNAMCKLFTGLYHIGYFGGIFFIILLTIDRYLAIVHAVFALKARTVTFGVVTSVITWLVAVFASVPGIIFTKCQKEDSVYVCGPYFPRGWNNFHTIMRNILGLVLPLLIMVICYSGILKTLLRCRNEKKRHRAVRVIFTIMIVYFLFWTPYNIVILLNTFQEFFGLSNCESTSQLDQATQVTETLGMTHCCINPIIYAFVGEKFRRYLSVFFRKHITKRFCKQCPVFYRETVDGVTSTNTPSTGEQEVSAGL
Test: Calcium mobilization assay (FLIPR, MCP-1 stimulated CHOK1-CCR2B-A5 cells)
Format: cell-based
Conditions: 20 nM MCP-1, antagonist activity, read-out: IC50 (inhibitor concentration required for 50% inhibition of specific calcium increases)
Description: Calcium Mobilization Assay
CHOK1-CCR2B-A5 cells (from Euroscreen) stably overexpressing the human chemokine receptor 2 isoform B were cultured in Nutrient Hams F12 medium supplemented with 5% FBS, 100 U/ml penicillin, 100 μg/ml streptomycin, 400 μg/ml G418 and 5 μg/ml puromycin.
For the assay cells were grown overnight in 384-well black clear flat bottom polystyrene plates (Costar) at 37° C. at 5% CO2. After washing with DMEM, 20 mM Hepes, 2.5 mM probenecid, 0.1% BSA (DMEM assay buffer) cells were loaded with 4 μM Fluo-4 in the same DMEM assay buffer for 2 hours at 30° C. Excess dye was removed and cells were washed with DMEM assay buffer. 384-well compound plates were prepared with DMEM assay buffer/0.5% DMSO with or without various concentrations of test compounds. Usually compounds were tested for agonist and antagonist activity.
Test compounds were added to the assay plate and agonist activity was monitored as fluorescence for 80 seconds with a FLIPR (488 nm excitation; 510-570 nm emission; Molecular Devices). After 20-30 min. of incubation at 30° C., 20 nM MCP-1 (R&D; Roche) was added and fluorescence was monitored again for 80 seconds. Increases in intracellular calcium are reported as maximum fluorescence after agonist exposure minus basal fluorescence before exposure. Antagonist activity is indicated as inhibitor concentration required for 50% inhibition of specific calcium increases.

SMILES	IC50
CNC(=O)c1nc(C(=O)N2CCC(N3CCCC3)CC2)c(C)cc1-c1cccc(C(F)(F)F)c1 [Example 58, 5-Methyl-6-(4-pyrrolidin-1-yl-piperidine-1-carbonyl)-3-(3-trifluoromethyl-phenyl)-pyridine-2-carboxylic acid methylamide]	190 nM
Cc1cc(-c2cccc(C(F)(F)F)c2)c(C(=O)N2CCN(C(=O)OC(C)(C)C)CC2)nc1C(=O)N1CCC(N2CCCC2)CC1 [Example 59, 4-[5-Methyl-6-(4-pyrrolidin-1-yl-piperidine-1-carbonyl)-3-(3-trifluoromethyl-phenyl)-pyridine-2-carbonyl]-piperazine-1-carboxylic acid tert-butyl ester]	490 nM
Cc1cc(-c2cccc(C(F)(F)F)c2)c(C(=O)NC2CCNCC2)nc1C(=O)N1CCC(N2CCCC2)CC1 [Example 60, 5-Methyl-6-(4-pyrrolidin-1-yl-piperidine-1-carbonyl)-3-(3-trifluoromethyl-phenyl)-pyridine-2-carboxylic acid piperidin-4-ylamide]	290 nM
Cc1cc(-c2cccc(C(F)(F)F)c2)c(C(=O)N2CCNCC2)nc1C(=O)N1CCC(N2CCCC2)CC1 [Example 61, [5-Methyl-6-(4-pyrrolidin-1-yl-piperidine-1-carbonyl)-3-(3-trifluoromethyl-phenyl)-pyridin-2-yl]-piperazin-1-yl-methanone]	320 nM
Cc1cc(-c2cccc(C(F)(F)F)c2)c(=O)n(C)c1C(=O)N1CCC(N2CCCC2)CC1 [Example 63, 1,5-Dimethyl-6-(4-pyrrolidin-1-yl-piperidine-1-carbonyl)-3-(3-trifluoromethyl-phenyl)-1H-pyridin-2-one]	32 nM
Cc1cc(-c2cccc(C(F)(F)F)c2)c2nnnn2c1C(=O)N1CCC(N2CCCC2)CC1 [Example 65, [6-Methyl-8-(3-trifluoromethyl-phenyl)-tetrazolo[1,5-a]pyridin-5-yl]-(4-pyrrolidin-1-yl-piperidin-1-yl)-methanone]	7.6 nM

Continued by falling IC50, values first:

IC50	SMILES
300 nM	Cc1cc(-c2cccc(C(F)(F)F)c2)c(S)nc1C(=O)N1CCC(N2CCCC2)CC1 [Example 64, [6-Mercapto-3-methyl-5-(3-trifluoromethyl-phenyl)-pyridin-2-yl]-(4-pyrrolidin-1-yl-piperidin-1-yl)-methanone; [3-Methyl-6-thioxo-5-(3-trifluoromethyl-phenyl)-1,6-dihydro-pyridin-2-yl]-(4-pyrrolidin-1-yl-piperidin-1-yl)-methanone (tautomers)]
200 nM	Cc1cc(-c2cccc(C(F)(F)F)c2)c(OCCO)nc1C(=O)N1CCC(N2CCCC2)CC1 [Example 66, [6-(2-Hydroxy-ethoxy)-3-methyl-5-(3-trifluoromethyl-phenyl)-pyridin-2-yl]-(4-pyrrolidin-1-yl-piperidin-1-yl)-methanone]
69 nM	Cc1cc(-c2cccc(C(F)(F)F)c2)c(Oc2cccnc2)nc1C(=O)N1CCC(N2CCCC2)CC1 [Example 62, [3-Methyl-6-(pyridin-3-yloxy)-5-(3-trifluoromethyl-phenyl)-pyridin-2-yl]-(4-pyrrolidin-1-yl-piperidin-1-yl)-methanone]
59 nM	Cc1cc(-c2cc(C(F)(F)F)ccc2F)c[n+]([O-])c1C(=O)N1CCC(N2CCCC2)CC1 [Example 67, [5-(2-Fluoro-5-trifluoromethyl-phenyl)-3-methyl-1-oxy-pyridin-2-yl]-(4-pyrrolidin-1-yl-piperidin-1-yl)-methanone]
